These results are taken from article PMC10985226, “A tangible method to assess native ferroptosis suppressor activity” (Cell Reports Methods, 2024).

This experiment has as its target T1, Glutathione peroxidase 4 (Strep-hGPX4) (Homo sapiens, UniProt P36969).
T1 construct: gene GPX4
T1 sequence (P36969 28-197): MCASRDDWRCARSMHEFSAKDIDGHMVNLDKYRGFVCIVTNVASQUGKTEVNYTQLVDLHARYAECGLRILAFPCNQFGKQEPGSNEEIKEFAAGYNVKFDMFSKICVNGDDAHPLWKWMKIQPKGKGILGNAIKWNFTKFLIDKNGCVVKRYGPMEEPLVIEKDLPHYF
Description: substrate turnover by isolated hGPX4, NADPH-coupled assay. Type of experiment: biochemical.

For the molecule `CC(C)(C)OO` [tBuOOH, tert-butyl hydroperoxide], the “substrate turnover by isolated hGPX4, NADPH-coupled assay” value was “All hydroperoxides except for H2O2 afforded the GPX4-dependent NADPH consumption in the assay system”.
Consider `CC(C)(OO)c1ccccc1` [cumeneOOH, cumene hydroperoxide], for which the “substrate turnover by isolated hGPX4, NADPH-coupled assay” value is listed as “All hydroperoxides except for H2O2 afforded the GPX4-dependent NADPH consumption in the assay system”.
